The text below walks through data of patent publication US20170283453A1, “COFACTOR ANALOGUES FOR METHYLTRANSFERASES” (KATHOLIEKE UNIVERSITEIT LEUVEN, priority 2014, published 2017).

Counter-ions that a name gives are not always drawn.

The subject of assay [1] is M.MpeI DNA methyltransferase. The assay is described as follows: Restriction protection assay after M.MpeI-directed DNA modification (agarose gel). As to conditions: pUC19 DNA, Cutsmart buffer, 60° C., 1 hour; restriction enzyme HhaI 1 hour; Ethidium bromide. It is filed as biochemical. On the procedure: Cytosine DNA modification by M.MpeI DNA methyltransferase: […] DNA methyltransferase targets the two-base recognition sequence 5′-CG-3′ and modifies the underlined cytosine residue and was combined with (8-Azido-oct-2-ene)(5′-Deoxyadenosyl)-(L-Cysteine)sulfonium salt (see example 9 for preparation). The methyltransferase enzyme and cofactors were incubated with pUC19 DNA in “Cutsmart buffer” at 60° C. for 1 hour. To determine if protection occurred the DNA was incubated with the corresponding restriction enzyme (HhaI) for 1 hour. Afterwards, the remaining proteins were digested with Proteinase K. The DNA samples are then placed on an agarose gel and visualized with Ethidium bromide (FIG. 3).

In assay [2] the target is M.TaqI DNA methyltransferase (Thermus aquaticus, UniProt P14385). The assay is described as follows: Restriction protection assay after M.TaqI-directed DNA modification (agarose gel). Type of assay: biochemical. As to conditions: pUC19 DNA, Cutsmart buffer, 60° C., 1 hour; restriction enzyme TaqaI 1 hour; Ethidium bromide. On the procedure: Adenine-N6 DNA modification by M.TaqI DNA methyltransferase: […] DNA methyltransferase targets the four-base recognition sequence 5′-TCGA-3′ and modifies the underlined adenine residue at the N6-position and was combined with (6-Azido-hex-2-yne)(5′-Deoxyadenosyl)-(L-Cysteine)sulfonium salt (see example 9 for preparation). The methyltransferase enzyme and cofactors were incubated with pUC19 DNA in “Cutsmart buffer” at 60° C. for 1 hour. To determine if protection occurred the DNA was incubated with the corresponding restriction enzyme (TaqaI) for 1 hour. Afterwards, the remaining proteins were digested with Proteinase K. The DNA samples are then placed on an agarose gel and visualized with Ethidium bromide (FIG. 1).
M.TaqI DNA methyltransferase, sequence (P14385 whole entry): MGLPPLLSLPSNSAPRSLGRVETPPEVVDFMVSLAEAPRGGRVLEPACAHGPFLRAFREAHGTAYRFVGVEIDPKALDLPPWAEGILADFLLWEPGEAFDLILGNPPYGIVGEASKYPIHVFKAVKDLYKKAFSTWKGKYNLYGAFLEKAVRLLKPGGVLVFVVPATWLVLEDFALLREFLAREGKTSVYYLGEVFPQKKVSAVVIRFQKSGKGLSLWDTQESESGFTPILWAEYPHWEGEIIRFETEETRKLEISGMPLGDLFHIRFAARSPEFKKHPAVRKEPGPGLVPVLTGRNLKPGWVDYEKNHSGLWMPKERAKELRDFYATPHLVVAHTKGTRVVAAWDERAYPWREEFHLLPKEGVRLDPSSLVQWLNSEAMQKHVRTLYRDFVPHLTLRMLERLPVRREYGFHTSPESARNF
Adenine-N6 DNA modification by M.TaqI DNA methyltransferase: […] DNA methyltransferase targets the four-base recognition sequence 5′-TCGA-3′ and modifies the underlined adenine residue at the N6-position and was combined with Rhodamine sulfonium salt (see example 12 for preparation). The methyltransferase enzyme and cofactors were incubated with pUC19 DNA in “Cutsmart buffer” at 60° C. for 1 hour. To determine if protection occurred the DNA was incubated with the corresponding restriction enzyme (TaqaI) for 1 hour. […]

The next assay has as its system plasmid DNA. Put plainly: Super resolution microscopy of fluorescently labeled DNA. As to conditions: FIG. 5 panel C; DNA spin coated on poly-L-lysine coated cover slips. As to the method: Adenine-N6 DNA modification by M.TaqI DNA methyltransferase: […] DNA methyltransferase targets the four-base recognition sequence 5′-TCGA-3′ and modifies the underlined adenine residue at the N6-position and was combined with Rhodamine sulfonium salt (see example 12 for preparation). The methyltransferase enzyme and cofactors were incubated with pUC19 DNA in “Cutsmart buffer” at 60° C. for 1 hour. To determine if protection occurred the DNA was incubated with the corresponding restriction enzyme (TaqaI) for 1 hour. Afterwards, the remaining proteins were digested with Proteinase K. DNA samples are then placed on an agarose gel and visualized with Ethidium bromide (FIG. 4).
Fluorescent DNA was purified using DNA Cleaner & Concentrator 5 columns (Zymo Research), and the DNA was spin coated on poly-L-lysine coated cover slips and used directly for microscopy studies. (FIG. 5)

As to `[N-]=[N+]=NCCCCCC=CC[S+](C[C@H](N)C(=O)O)C[C@H]1O[C@@H](n2cnc3c(N)ncnc32)[C@H](O)[C@@H]1O` (stereo partly drawn) [(8-Azido-oct-2-ene)(5′-Deoxyadenosyl)-(L-Cysteine)sulfonium salt], the “Protection of DNA against cutting by restriction enzyme (band pattern on agarose gel)” value in assay [1] is on record as 1 strong band, corresponding to uncut DNA.

On to `[N-]=[N+]=NCCCC#CC[S+](C[C@H](N)C(=O)O)C[C@H]1O[C@@H](n2cnc3c(N)ncnc32)C(O)C1O` (stereo partly drawn) [(6-Azido-hex-2-yne)(5′-Deoxyadenosyl)-(L-Cysteine)sulfonium Salt], for which the “Protection of DNA against cutting by restriction enzyme (band pattern on agarose gel)” value in assay [2] is listed as 1 strong band, corresponding to uncut DNA. As to `CCN(CC)c1ccc2c(-c3ccccc3C(=O)N(C)CCC(=O)NCCCCC/C=C/C[S+](C[C@H](N)C(=O)O)C[C@H]3O[C@@H](n4cnc5c(N)ncnc54)[C@@H](O)C3O)c3ccc(=[N+](CC)CC)cc-3oc2c1` (stereo partly drawn) [Rhodamine sulfonium salt], in the assay on plasmid DNA, the “Colocalization of the dye with a DNA intercalating dye (fluorescent DNA labeling)” value is “successful fluorescent DNA labeling”.
